Experimental data taken from ChEMBL document CHEMBL1147682, “New 4-(4-methyl-phenyl)phthalazin-1(2H)-one derivatives and their effects on alpha1-receptors” (Bioorg Med Chem Lett, 2006).

Columns and labels:
Format in all cases: tissue-based
[1] = target: T1, Adrenergic receptor alpha-1 (Rattus norvegicus, UniProt P15823+P23944+P43140); assay: Displacement of [3H]prazosin from alpha-1 adrenergic receptor in rat cerebral cortex
T1 sequence (P15823 whole entry): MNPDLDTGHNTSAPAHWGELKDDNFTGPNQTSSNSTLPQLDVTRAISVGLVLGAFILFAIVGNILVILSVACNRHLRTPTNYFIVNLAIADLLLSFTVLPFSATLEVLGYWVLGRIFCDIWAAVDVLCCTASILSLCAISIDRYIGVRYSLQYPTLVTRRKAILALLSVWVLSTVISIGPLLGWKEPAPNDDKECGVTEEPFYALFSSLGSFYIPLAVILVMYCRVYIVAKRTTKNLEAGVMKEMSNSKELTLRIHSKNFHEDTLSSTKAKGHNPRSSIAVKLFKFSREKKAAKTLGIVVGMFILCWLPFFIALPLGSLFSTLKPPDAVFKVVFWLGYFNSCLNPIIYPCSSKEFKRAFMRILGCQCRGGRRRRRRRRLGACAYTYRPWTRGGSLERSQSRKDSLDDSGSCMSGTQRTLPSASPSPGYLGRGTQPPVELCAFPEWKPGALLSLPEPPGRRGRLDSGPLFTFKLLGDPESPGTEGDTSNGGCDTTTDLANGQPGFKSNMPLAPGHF
T1 sequence (P23944 whole entry): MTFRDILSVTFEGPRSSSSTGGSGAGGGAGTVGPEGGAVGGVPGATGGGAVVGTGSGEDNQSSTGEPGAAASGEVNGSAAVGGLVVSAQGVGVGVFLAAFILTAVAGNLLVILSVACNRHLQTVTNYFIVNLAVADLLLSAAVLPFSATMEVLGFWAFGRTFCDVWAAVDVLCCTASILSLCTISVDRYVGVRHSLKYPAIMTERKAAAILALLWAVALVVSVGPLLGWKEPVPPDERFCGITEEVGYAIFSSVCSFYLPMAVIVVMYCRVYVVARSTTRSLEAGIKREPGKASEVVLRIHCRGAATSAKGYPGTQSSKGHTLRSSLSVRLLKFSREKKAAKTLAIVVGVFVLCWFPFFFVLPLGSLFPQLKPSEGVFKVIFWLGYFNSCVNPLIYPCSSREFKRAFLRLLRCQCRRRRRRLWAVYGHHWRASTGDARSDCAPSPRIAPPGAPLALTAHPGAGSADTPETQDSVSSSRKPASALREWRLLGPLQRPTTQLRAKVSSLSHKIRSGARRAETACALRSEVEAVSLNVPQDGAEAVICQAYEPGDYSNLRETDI
T1 sequence (P43140 whole entry): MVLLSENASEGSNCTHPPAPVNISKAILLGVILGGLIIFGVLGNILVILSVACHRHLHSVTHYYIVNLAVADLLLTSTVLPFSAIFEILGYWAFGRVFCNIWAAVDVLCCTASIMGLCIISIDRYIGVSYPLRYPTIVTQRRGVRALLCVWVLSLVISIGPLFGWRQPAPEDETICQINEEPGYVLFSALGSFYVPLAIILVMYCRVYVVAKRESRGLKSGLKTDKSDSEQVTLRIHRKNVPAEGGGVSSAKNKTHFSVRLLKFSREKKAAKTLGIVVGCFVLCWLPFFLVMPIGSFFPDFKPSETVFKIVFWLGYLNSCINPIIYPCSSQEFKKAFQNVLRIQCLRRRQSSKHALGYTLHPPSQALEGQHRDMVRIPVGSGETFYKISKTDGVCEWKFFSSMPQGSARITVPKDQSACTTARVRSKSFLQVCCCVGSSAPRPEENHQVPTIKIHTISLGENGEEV

[2] = target: T2, Serotonin 1a (5-HT1a) receptor/Adrenergic receptor alpha-1 (Rattus norvegicus) (UniProt P15823+P23944+P43140+P19327); assay: Selectivity for alpha-1 adrenergic receptor over 5HT1A serotonergic receptor in rat cerebral cortex
[3] = target: T3, 5-hydroxytryptamine receptor 1A (Rattus norvegicus, UniProt P19327); assay: Displacement of [3H]8-OH-DPAT from 5HT1A serotonergic receptor in rat cerebral cortex
T3 sequence (P19327 whole entry): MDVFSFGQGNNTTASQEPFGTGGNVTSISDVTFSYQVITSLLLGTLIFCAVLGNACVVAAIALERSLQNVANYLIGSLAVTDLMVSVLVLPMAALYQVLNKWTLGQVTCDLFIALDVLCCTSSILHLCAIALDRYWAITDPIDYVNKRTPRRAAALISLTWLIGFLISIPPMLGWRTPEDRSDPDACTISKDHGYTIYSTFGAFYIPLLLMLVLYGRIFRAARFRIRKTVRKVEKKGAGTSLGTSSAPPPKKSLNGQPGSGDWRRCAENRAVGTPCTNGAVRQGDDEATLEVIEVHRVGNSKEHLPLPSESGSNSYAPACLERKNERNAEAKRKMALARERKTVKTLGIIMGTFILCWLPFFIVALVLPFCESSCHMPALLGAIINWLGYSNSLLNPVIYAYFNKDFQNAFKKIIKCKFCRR

[4] = target: T4, Adrenergic receptor alpha-2 (Rattus norvegicus, UniProt P22086+P19328+P22909); assay: Displacement of [3H]rauwolscine from alpha-2 adrenergic receptor in rat cerebral cortex
T4 sequence (P22086 whole entry): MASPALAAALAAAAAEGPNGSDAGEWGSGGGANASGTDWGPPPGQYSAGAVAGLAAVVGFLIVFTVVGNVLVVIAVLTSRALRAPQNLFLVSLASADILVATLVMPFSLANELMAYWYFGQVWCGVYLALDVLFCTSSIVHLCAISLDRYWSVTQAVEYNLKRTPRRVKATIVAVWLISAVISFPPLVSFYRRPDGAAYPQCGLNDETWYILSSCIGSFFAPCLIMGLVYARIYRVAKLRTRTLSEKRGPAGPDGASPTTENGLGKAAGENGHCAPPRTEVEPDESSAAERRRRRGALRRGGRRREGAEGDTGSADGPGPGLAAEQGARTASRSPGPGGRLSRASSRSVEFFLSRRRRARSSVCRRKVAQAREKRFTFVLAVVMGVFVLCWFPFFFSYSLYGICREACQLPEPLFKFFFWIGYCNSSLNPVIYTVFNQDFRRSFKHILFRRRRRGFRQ
T4 sequence (P19328 whole entry): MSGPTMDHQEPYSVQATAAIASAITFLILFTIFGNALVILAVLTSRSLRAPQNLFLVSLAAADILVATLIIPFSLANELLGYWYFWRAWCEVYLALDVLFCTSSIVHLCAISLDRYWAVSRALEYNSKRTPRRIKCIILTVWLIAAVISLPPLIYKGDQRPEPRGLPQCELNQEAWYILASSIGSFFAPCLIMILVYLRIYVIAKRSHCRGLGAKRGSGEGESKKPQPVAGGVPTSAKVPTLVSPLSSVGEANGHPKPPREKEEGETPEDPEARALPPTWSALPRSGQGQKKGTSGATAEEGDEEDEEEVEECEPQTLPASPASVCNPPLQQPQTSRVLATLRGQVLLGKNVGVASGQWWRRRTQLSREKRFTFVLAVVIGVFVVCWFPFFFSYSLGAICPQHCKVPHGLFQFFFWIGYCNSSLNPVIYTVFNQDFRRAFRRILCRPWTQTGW
T4 sequence (P22909 whole entry): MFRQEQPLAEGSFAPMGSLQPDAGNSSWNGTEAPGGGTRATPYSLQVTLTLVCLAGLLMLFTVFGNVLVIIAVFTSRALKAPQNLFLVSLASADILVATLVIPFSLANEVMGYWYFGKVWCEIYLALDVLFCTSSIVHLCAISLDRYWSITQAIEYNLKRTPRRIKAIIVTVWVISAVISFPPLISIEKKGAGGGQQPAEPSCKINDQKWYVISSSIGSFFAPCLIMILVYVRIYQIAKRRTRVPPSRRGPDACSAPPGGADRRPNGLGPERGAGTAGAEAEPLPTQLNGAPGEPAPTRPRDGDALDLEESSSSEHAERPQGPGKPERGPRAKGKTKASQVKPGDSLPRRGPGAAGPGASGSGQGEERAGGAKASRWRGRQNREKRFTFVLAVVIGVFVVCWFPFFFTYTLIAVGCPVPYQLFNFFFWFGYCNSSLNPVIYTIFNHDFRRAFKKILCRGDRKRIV

[5] = target: T5, 5-hydroxytryptamine receptor 1A (Rattus norvegicus) (UniProt P19327); assay: Displacement of [3H]8-OH-DPAT from 5HT1A serotonergic receptor in rat cerebral cortex at 10 uM
T5 sequence (whole entry): T3 sequence (P19327 whole entry)

[6] = target: Adrenergic receptor alpha-1 (Rattus norvegicus) (UniProt P15823+P23944+P43140); assay: Displacement of [3H]prazosin from alpha-1 adrenergic receptor in rat cerebral cortex at 10 uM
[7] = target: Adrenergic receptor alpha-2 (Rattus norvegicus) (UniProt P22086+P19328+P22909); assay: Displacement of [3H]rauwolscine from alpha-2 adrenergic receptor in rat cerebral cortex at 10 uM
[8] = target: T2, Serotonin 1a (5-HT1a) receptor/Adrenergic receptor alpha-1 (Rattus norvegicus); assay: Selectivity for 5HT1A serotonergic receptor over alpha1 adrenergic receptor in rat cerebral cortex

Row | SMILES | Ki [1] [nM] | Ratio Ki [2] | Ki [3] [nM] | Ki [4] [nM] | inhibition [5] [%] | inhibition [6] [%] | inhibition [7] [%] | Ratio Ki [8]
1 | Cc1ccc(-c2nn(CCCCN3CCN(CC4COc5ccccc5O4)CC3)c(=O)c3ccccc23)cc1 (configuration not stated) | 180 | 10.7 | 1930 | 278 |  |  |  | 
2 | Cc1ccc(-c2nn(CCCCCCCn3ncc4ccccc4c3=O)c(=O)c3ccccc23)cc1 |  |  |  |  | 10 | 26 | 15 | 
3 | Cc1ccc(-c2nn(CCN3CCN(c4ccccc4)CC3)c(=O)c3ccccc23)cc1 | 25.3 | 245 | 6200 | 4262 |  |  |  | 
4 | Cc1ccc(-c2nn(CCCCCCCN3CCN(c4cccc(Cl)c4)CC3)c(=O)c3ccccc23)cc1 | 37 | 18.2 | 673 | 430 |  |  |  | 
5 | Cc1ccc(-c2nn(CCCCN3CCN(c4cccc(C(F)(F)F)c4)CC3)c(=O)c3ccccc23)cc1 | 111.6 |  | 71.8 | 186.5 |  |  |  | 1.5
6 | Cc1ccc(-c2nn(CCCCN3CCN(c4ncccn4)CC3)c(=O)c3ccccc23)cc1 | 270 | 4.4 | 1180 | 2034 |  |  |  | 
7 | Cc1ccc(-c2nn(CCCCCCCN3CCN(c4cccc(C(F)(F)F)c4)CC3)c(=O)c3ccccc23)cc1 | 382 | 1.9 | 722 | 4180 |  |  |  | 
8 | Cc1ccc(-c2nn(CCCCN3CCN(c4cccc(Cl)c4)CC3)c(=O)c3ccccc23)cc1 | 12.4 | 9.3 | 116 | 178.2 |  |  |  | 

Continued, values first:

Row | Ki [1] [nM] | Ratio Ki [2] | Ki [3] [nM] | Ki [4] [nM] | inhibition [5] [%] | inhibition [6] [%] | inhibition [7] [%] | Ratio Ki [8] | SMILES
9 | 3.5 | 135 | 473 | 578 |  |  |  |  | COc1ccccc1N1CCN(CCn2nc(-c3ccc(C)cc3)c3ccccc3c2=O)CC1
10 | 5 | 258 | 1290 | 1301 |  |  |  |  | Cc1ccc(-c2nn(CCN3CCN(c4ccccc4OC(C)C)CC3)c(=O)c3ccccc23)cc1
11 | 1.07 | 75.7 | 81 | 96 |  |  |  |  | Cc1ccc(-c2nn(CCCCN3CCN(c4ccccc4OC(C)C)CC3)c(=O)c3ccccc23)cc1
12 | 7.33 | 28.2 | 207 | 889 |  |  |  |  | CCOc1ccccc1N1CCN(CCCCCCCn2nc(-c3ccc(C)cc3)c3ccccc3c2=O)CC1
13 | 8.4 | 12 | 101 | 105 |  |  |  |  | COc1ccccc1N1CCN(CCCCCCCn2nc(-c3ccc(C)cc3)c3ccccc3c2=O)CC1
14 | 2.23 | 18.3 | 41 | 60.47 |  |  |  |  | CCOc1ccccc1N1CCN(CCCCn2nc(-c3ccc(C)cc3)c3ccccc3c2=O)CC1
15 | 23.9 | 18.8 | 450 | 186 |  |  |  |  | Cc1ccc(-c2nn(CCCCN3CCN(c4ccccc4)CC3)c(=O)c3ccccc23)cc1
16 | 2.6 | 14.8 | 38.5 | 60.37 |  |  |  |  | COc1ccccc1N1CCN(CCCCn2nc(-c3ccc(C)cc3)c3ccccc3c2=O)CC1
17 | 3.9 | 244 | 951 | 867 |  |  |  |  | CCOc1ccccc1N1CCN(CCn2nc(-c3ccc(C)cc3)c3ccccc3c2=O)CC1
